Where “and” joins values, the source holds several entries; their conditions need not be identical. Equal values may be shown once.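 A five-concentration, 48-hour dose response in 96-well plates underlies each endpoint, interpolated linearly between surrounding concentrations. Here, GI50 denotes the concentration required for 50% inhibition of growth. At the TGI there is no net growth.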

Experimental findings from PubChem BioAssay (NCI) are described below.

Some test systems named below: SK-MEL-2 melanoma; MDA-MB-231 breast; EKVX NSCLC; SF-539 CNS; HOP-92 NSCLC; MALME-3M melanoma; ACHN renal; HT29 colon; XF 498 CNS; DMS 273 small cell lung; DLD-1 colon; LXFL 529 NSCLC; HOP-18 NSCLC.
Holding throughout (experiment): NCI anticancer screen, dose series, 48 h

Take `O=C1CCSSCCC(=O)Nc2ccccc2N1`: the TGI in the experiment with SK-MEL-2 melanoma, in the experiment with MDA-MB-231 breast, in the experiment with EKVX NSCLC, in the experiment with SF-539 CNS, with HOP-92 NSCLC and in the experiment with MALME-3M melanoma was more than 100 µM throughout. For the same compound, the TGI with ACHN renal and in the experiment with HT29 colon was more than 100 µM throughout.
Take `O=c1oc2ccccc2cc1-c1nc2ccc([N+](=O)[O-])cc2o1`: the TGI in the experiment on SK-MEL-2 melanoma, with MDA-MB-231 breast, in the experiment with EKVX NSCLC, in the experiment with SF-539 CNS, in the experiment on HOP-92 NSCLC and in the experiment on MALME-3M melanoma was more than 100 µM in each case. The TGI is 80.9 µM with ACHN renal and more than 100 µM with HT29 colon.
On to `Cc1nc2c(n1Cc1ccc(Cl)cc1)C(=O)c1ccccc1C2=O`, for which the TGI in the experiment on XF 498 CNS, in the experiment with SK-MEL-2 melanoma, with DMS 273 small cell lung, in the experiment on EKVX NSCLC, in the experiment on SF-539 CNS and with MALME-3M melanoma was more than 75 µM in each case. The TGI with ACHN renal, in the experiment with HT29 colon, in the experiment on DLD-1 colon and in the experiment with LXFL 529 NSCLC was more than 75 µM in each case.
With `CCOC(=O)c1cc(-c2ccc(OC)c(OC)c2)c[nH]1`, the TGI with SK-MEL-2 melanoma, in the experiment on MDA-MB-231 breast, with EKVX NSCLC, in the experiment on SF-539 CNS, in the experiment on HOP-92 NSCLC and with MALME-3M melanoma was more than 10 µM throughout. Also, the TGI in the experiment with ACHN renal and in the experiment with HT29 colon was more than 10 µM each time.
For `COC(=O)Cc1c(C2=Nc3ccccc3C2(O)CC(=O)OC)[nH]c2ccccc12` (stereo not drawn), the TGI was more than 100 µM with SK-MEL-2 melanoma; more than 100 µM with MDA-MB-231 breast; more than 100 µM in the experiment on EKVX NSCLC; 85.5 µM with SF-539 CNS; more than 100 µM in the experiment with HOP-92 NSCLC; more than 100 µM in the experiment with MALME-3M melanoma. In addition, the TGI in the experiment on ACHN renal and in the experiment with HT29 colon was more than 100 µM each time.
For `CC(C)(CN1CCCCC1)C(=O)CC(SCCS(=O)(=O)O)c1ccc(Br)cc1` (stereo not drawn), the TGI with XF 498 CNS was 2.07 µM; in the experiment on HOP-18 NSCLC, 3.57 µM; in the experiment with SK-MEL-2 melanoma, 4.37 µM; with DMS 273 small cell lung, 3.58 µM; in the experiment on EKVX NSCLC, 6.51 µM; in the experiment on SF-539 CNS it was 3.96 µM. Besides, the TGI in the experiment with HOP-92 NSCLC amounted to 2.08 µM; with MALME-3M melanoma, 3.38 µM; with ACHN renal, 3.1 µM; in the experiment on HT29 colon, 3.72 µM; in the experiment with DLD-1 colon, 5.73 µM; in the experiment with LXFL 529 NSCLC, 2.7 µM.
As for `c1ccc2c(c1)CC1c3[nH]c4ccccc4c3CCN21` (stereo not drawn), the TGI in the experiment with SK-MEL-2 melanoma, with MDA-MB-231 breast, in the experiment on EKVX NSCLC, in the experiment on SF-539 CNS, with HOP-92 NSCLC and in the experiment on MALME-3M melanoma was more than 10 µM each time. Also, the TGI with ACHN renal and in the experiment with HT29 colon was more than 10 µM in each case.
For `CC1=NN(c2ccc(C)cc2)C2(C1)SCC(=O)N2c1nc2ccccc2s1` (stereo not drawn), the TGI in the experiment with SK-MEL-2 melanoma is 61.1 µM; in the experiment on MDA-MB-231 breast, 41.4 µM; in the experiment on EKVX NSCLC, 99.1 µM; with SF-539 CNS, 46.8 µM; with HOP-92 NSCLC it was more than 100 µM; with MALME-3M melanoma, more than 100 µM. Moreover, the TGI with ACHN renal and in the experiment on HT29 colon was more than 100 µM throughout.
For `CCCCn1cc(C(=O)O)c(=O)c2c3sccc3ccc21`, the TGI in the experiment with SK-MEL-2 melanoma, with MDA-MB-231 breast, in the experiment with EKVX NSCLC, with SF-539 CNS, in the experiment with HOP-92 NSCLC and in the experiment on MALME-3M melanoma was more than 100 µM throughout. Moreover, the TGI in the experiment on ACHN renal and in the experiment on HT29 colon was more than 100 µM each time.
In the case of `O=C(Cc1nc2ccc(C(=O)c3ccccc3)cc2[nH]c1=O)C(=O)Nc1ccccc1[N+](=O)[O-]`, the TGI in the experiment on SK-MEL-2 melanoma, in the experiment with MDA-MB-231 breast, with EKVX NSCLC, in the experiment on SF-539 CNS, in the experiment with HOP-92 NSCLC and in the experiment with MALME-3M melanoma was more than 100 µM in each case. Besides, the TGI with ACHN renal and with HT29 colon was more than 100 µM throughout.
Turning to `COc1cc2c3c(n(CCCNCCO)c(=O)c2cc1OC)-c1cc2c(cc1C3=O)OCO2`, the GI50 in the experiment on SK-MEL-2 melanoma is 2.55 µM and 10.9 µM; with MDA-MB-231 breast it was 1.09 µM; in the experiment on EKVX NSCLC, 0.257 µM and 0.557 µM; with HOP-92 NSCLC, 0.831 µM and 0.102 µM; in the experiment with MALME-3M melanoma, 0.252 µM and 0.143 µM; in the experiment on HT29 colon, 0.0502 µM. Further, the TGI in the experiment with SK-MEL-2 melanoma was 5.84 µM and 23.7 µM; with MDA-MB-231 breast, 2.03 µM and 5.18 µM; in the experiment with EKVX NSCLC it was 1.22 µM; in the experiment with SF-539 CNS, 1.36 µM; in the experiment on HOP-92 NSCLC, 2.77 µM and 3.56 µM; with MALME-3M melanoma, 4.06 µM and 2 µM. In addition, the TGI with ACHN renal was 0.176 µM and 0.369 µM; in the experiment with HT29 colon, 0.589 µM.
Take `Cc1ccc(S(=O)(=O)C(C#N)c2nc3ccccc3nc2-n2cccn2)cc1` (stereo not drawn): the TGI in the experiment with XF 498 CNS, in the experiment on HOP-18 NSCLC, in the experiment on SK-MEL-2 melanoma, with DMS 273 small cell lung, in the experiment with EKVX NSCLC and in the experiment with SF-539 CNS was more than 100 µM in each case. In addition, the TGI with HOP-92 NSCLC, in the experiment on MALME-3M melanoma, in the experiment on ACHN renal, in the experiment on HT29 colon, with DLD-1 colon and with LXFL 529 NSCLC was more than 100 µM throughout.
Consider `O=C1c2ccccc2S(=O)(=O)c2ccccc21`, for which the TGI in the experiment on SK-MEL-2 melanoma, in the experiment on MDA-MB-231 breast, with EKVX NSCLC, in the experiment with SF-539 CNS, in the experiment with HOP-92 NSCLC and in the experiment with MALME-3M melanoma was more than 100 µM throughout. In addition, the TGI in the experiment with ACHN renal and with HT29 colon was more than 100 µM in each case.
For `CN(C)c1ccc(-c2nc(-c3cc4c(ccc5ccccc54)oc3=O)cs2)cc1`, the TGI in the experiment on SK-MEL-2 melanoma, with MDA-MB-231 breast, in the experiment on EKVX NSCLC, in the experiment on SF-539 CNS, in the experiment with HOP-92 NSCLC and in the experiment with MALME-3M melanoma was more than 100 µM each time. The TGI in the experiment with ACHN renal and with HT29 colon was more than 100 µM throughout.
